Assay results: US12091653B2, “Strain of Glutamicibacter, originating from insects, capable of efficiently degrading bifenthrin” (Anhui Agricultural University, priority 2023, dated 2024)

System: E. grisescens larvae
Assay: Toxicity testing of 2,4-di-tert-butylphenol in artificial food fed to E. grisescens larvae
Type: in vivo, Ectropis grisescens
Settings: 100 mg/L in sterile artificial food, 48 hours
Protocol: A stock solution of 2,4-di-tert-butylphenol (purchased from Beijing Solarbio Science & Technology Co., Ltd., HPLC≥99%) was prepared following the preparation method for bifenthrin stock solution. This stock solution was added to sterile artificial food at a final concentration of 100 mg/L. This food was used to feed 30 healthy 4-5 aged E. grisescens larvae. The control group was fed normal sterile artificial food.

CC(C)(C)c1ccc(O)c(C(C)(C)C)c1 [2,4-di-tert-butylphenol]
toxicity to E. grisescens larvae: little to no toxicity
survival rate of E. grisescens larvae (control food 93.33%): 94.45%
